# Where “and” joins values, the source holds several entries; their conditions need not be identical. Equal values may be shown once.
# Legend:
# [1] = tested on: patients with advanced solid tumours; assay: Cardiac safety: ECG (QTcF), troponin, echocardiogram; format: in vivo, human
# Experimental: Cardiac assessments included centrally-assessed serial ECGs in Cycle 1 used for evaluation of QTc. In addition, locally-read ECGs for safety assessment were also available for central assessment where clinically indicated. Troponin T or I assessments and echocardiogram were locally assessed.
# Safety and response variables were summarized using descriptive statistics and PK parameters were determined using non-compartmental methods. A concentration-effect model was used to evaluate the relationship between plasma SRA737 concentrations and the mean change from baseline in QT interval corrected for heart rate using Fridericia’s formula (QTcF) in time-matched ECG measurements and PK samples collected on Day −7 to Day −4 and during Cycle 1.
# Chk1 = tested on: Chk1; parameters: method as in printed; settings: previously shown in preclinical experiments; ref not given; cited from earlier work
smiles,measurement,setting,value
"N#Cc1cnc(Nc2cc(NC[C@H]3CNCCO3)c(C(F)(F)F)cn2)cn1 [SRA737, (R)-5-((4-((morpholin-2-ylmethyl)amino)-5-(trifluoromethyl)pyridin-2-yl)amino)pyr azine-2-carbonitrile]",largest LS mean ΔQTcF,"[1]; 800 mg QD, 2 h post dose on Cycle 1 Day 22, 90% confidence interval 11.53 to 22.13",16.8 ms
same,cases of acute coronary syndrome (cardiac SAE),[1]; 800 mg SRA737,1 case
same,cases of asymptomatic myocardial infarction (cardiac SAE),[1]; 800 mg SRA737,1 case
same,cases of asymptomatic QT prolongation (cardiac SAE),[1]; 1000 mg SRA737,1 case
same,cases of cardiomyopathy (cardiac SAE),[1]; 1000 mg SRA737,1 case
same,cardiac serious adverse events evaluated to be possibly related to SRA737,[1]; all doses,Four
same,subjects with treatment-emergent QTcF values >500 ms or ΔQTcF of >60 ms,[1]; central ECG monitoring,no individual subjects
same,patients with > 10% absolute drop from baseline resulting in abnormal left ventricular ejection fraction,"[1]; echocardiogram data, 83 evaluable patients, other than cardiomyopathy and myocardial infarction cases",no additional patients
same,"drop of left ventricular ejection fraction, one patient",[1]; echocardiogram performed outside the study,from 65 to 20–25%
same,"effects on heart rate, PR interval, or QRS duration",[1]; studied doses,no clinically relevant effects
same,proarrhythmic potential,[1]; therapeutic doses,no indication that SRA737 is proarrhythmic
same,minimally effective concentration to inhibit Chk1,Chk1,100 nM and 37.9 ng/mL
